{"source": "EPA's ToxValDB 9.5 (doi:10.2903/j.efsa.2009.298r)", "key": {"Allium cepa": {"tested_on": "Allium cepa", "conditions": "not reported; seedling emergence"}, "Folsomia candida": {"tested_on": "Folsomia candida", "conditions": "chronic/long-term"}, "Daphnia magna": {"tested_on": "Daphnia magna", "conditions": "chronic/long-term; duration: 21 days; reproduction"}, "Tagia sp.": {"tested_on": "Tagia sp.", "conditions": "mortality"}, "Apis mellifera": {"tested_on": "Apis mellifera", "conditions": "acute, mortality"}, "Canidae": {"tested_on": "Canidae", "conditions": "oral, Dog Other, organ weight"}}, "data": [{"smiles": "CCCCC(C#N)(Cn1cncn1)c1ccc(Cl)cc1", "note": "(configuration not stated) [Myclobutanil]", "values": [{"measurement": "LEL", "setting": "Allium cepa", "result": "> 300", "unit": "g/ha"}, {"measurement": "LEL", "setting": "Typhlodromus pyri; acute, duration: 14 days, mortality", "result": 36, "unit": "g/ha"}, {"measurement": "LEL", "setting": "Typhlodromus pyri; not reported, reproduction", "result": 36, "unit": "g/ha"}, {"measurement": "NOEC", "setting": "Folsomia candida", "result": 20.5, "unit": "mg/kg"}, {"measurement": "NOEC", "setting": "Daphnia magna", "result": 1, "unit": "mg/L"}, {"measurement": "LC50", "setting": "Tagia sp.; acute", "result": 250, "unit": "mg/kg"}, {"measurement": "NOEC", "setting": "Tagia sp.; chronic/long-term, duration: 28 days", "result": 10.3, "unit": "mg/kg"}, {"measurement": "LC50", "setting": "Colinus virginianus; acute, oral, diet, mortality", "result": "> 567", "unit": "mg/kg-day"}, {"measurement": "LD50", "setting": "Colinus virginianus; acute, oral, mortality", "result": 510, "unit": "mg/kg-day"}, {"measurement": "NOEC", "setting": "Colinus virginianus; reproduction developmental", "result": 24.2, "unit": "mg/kg-day"}, {"measurement": "LD50", "setting": "Rattus norvegicus; acute, oral, M, mortality", "result": 1600, "unit": "mg/kg-day"}, {"measurement": "NOAEL", "setting": "Rattus norvegicus; chronic, duration: 2 years, histopathology: nonneoplastic", "result": 2.5, "unit": "mg/kg-day"}, {"measurement": "NOAEL", "setting": "Rattus norvegicus; developmental, development", "result": 31, "unit": "mg/kg-day"}, {"measurement": "NOEL", "setting": "Rattus norvegicus; reproduction developmental, reproduction", "result": 16, "unit": "mg/kg-day"}, {"measurement": "LD50", "setting": "Apis mellifera; duration: 72 hours, dermal", "result": "> 39.6", "unit": "µg/piece"}, {"measurement": "LD50", "setting": "Apis mellifera; oral, unspecified", "result": "> 33.9", "unit": "µg/piece"}, {"measurement": "LC50", "setting": "Oncorhynchus mykiss; acute, duration: 96 hours, mortality", "result": 2, "unit": "µg/mL"}, {"measurement": "NOEC", "setting": "Oncorhynchus mykiss; chronic/long-term, duration: 21 days, growth", "result": 0.2, "unit": "mg/L"}, {"measurement": "NOEC", "setting": "Anas platyrhynchos; reproductive", "result": 31.6, "unit": "mg/kg-day"}, {"measurement": "LC50", "setting": "Anas platyrhynchos; short-term, oral, feed, mortality", "result": "> 1540", "unit": "mg/kg-day"}, {"measurement": "NOAEL", "setting": "Canidae; chronic, duration: 1 years", "result": 3.09, "unit": "mg/kg-day"}, {"measurement": "NOAEL", "setting": "Canidae; subchronic, duration: 90 days", "result": 3.09, "unit": "mg/kg-day"}]}]}
